Laboratory results taken from patent US20250281462A1, “THERAPEUTICALLY EFFECTIVE ORAL ADMINISTRATION OF A 2 ARYLBENZIMIDAZOLE” (Tranquis Therapeutics, Inc., priority 2021, published 2025).
Values joined by “and” are separate entries in the source; they are usually repeats but may differ in a detail not shown here. Identical values can stand only once. Like-named read-outs stand apart in the source and are kept apart here.

Tests used:
[1] = human, in vivo
[2] = Plasma and brain concentrations after single oral dose 45 mg/kg in mice; type: in vivo; settings: TQS-168 45 mg/kg p.o.
Description: Mice were administered a single oral dose of 45 mg/kg TQS-168. TQS-168 was prepared at a concentration of 5.0 mg/mL as a solution in 10% polyethylene glycol (PEG) 400|130% Kleptose (Roquette) 60% water.
Concentrations in plasma and in brain were measured at various timepoints and various pharmacokinetic parameters were calculated, as shown below in Tables 4 and 5 and in FIGS. 19A and 19B.
TQS-168 was prepared as a 4.5 mg/ml solution in PEG400 10%| Kleptose 30% sterile water 60%. A single oral dose of 45 mg/kg was administered. Concentrations of TQS-621 were measured in plasma and brain over time.

[3] = Plasma concentrations of TQS-168 and TQS-621 after single oral dose 50 mg/kg in mice, three formulations; type: in vivo; settings: mice plasma, TQS-168 50 mg/kg p.o.
Description: In a second experiment, mice were administered 50 mg/kg TQS-168 by oral gavage. For Group 1, TQS-168 was prepared at a concentration of 5.0 mg/mL in a suspension with […] in PBS. For Group 2, TQS-168 was prepared at a concentration of 5.0 mg/mL as a solution in 10 polyethylene glycol (PEG) 400|30 Kleptose (Roquete)|60% water.
Plasma exposures for Group 1 mice (ng/mL) are presented in Table 2 and for Group 2 mice in Table 3.
C57BL/6 male mice were administered a single dose of TQS-168 at 50 mg/kg using one of three formulations: Group 1-5.0 mg/ml suspension in 0.5% methylcellulose in PBS; Group 2-5.0 mg/ml solution in PEG400 (Fluka) 10%|Kleptose (Roquette) 30%|sterile water 60%; Group 3-5.0 mg/ml suspension in Labrafil M 1944 CS (Gattefosse) 30%|Masine CC (Gattefosse) 5%|Miglyol 812N 10%|sterile water 55%.
Plasma concentrations of TQS-168 and TQS-621 were measured overtime.

[4] = mouse, po, mice brain, solution PEG 400/Kleptose/water
[5] = mouse, po, mice plasma, solution PEG 400/Kleptose/water
[6] = male, C57BL/6, mouse, plasma, po, 50 mg/kg, Group 1 (suspension, 0.5% methylcellulose in PBS), mean
[7] = male, C57BL/6, mouse, plasma, po, 50 mg/kg, Group 2 (solution, PEG400/Kleptose/water), individual mouse
[8] = male, C57BL/6, mouse, plasma, po, 50 mg/kg, Group 2 (solution, PEG400/Kleptose/water), mean
[9] = male, C57BL/6, mouse, plasma, po, 50 mg/kg, Group 3 (suspension, Labrafil/Masine/Miglyol/water), individual mouse
[10] = male, C57BL/6, mouse, plasma, po, 50 mg/kg, Group 3 (suspension, Labrafil/Masine/Miglyol/water), mean
[11] = Group 1 (suspension, 0.5% methylcellulose in PBS), individual mouse
[12] = Group 2 (solution, PEG400/Kleptose/water), individual mouse
[13] = Group 2 (solution, PEG400/Kleptose/water), mean
[14] = Group 3 (suspension, Labrafil/Masine/Miglyol/water), individual mouse

In the case of CC(C)(C)c1ccc(-c2nc3cc(O)ccc3[nH]2)cc1 [TQS-621], the “MPR AUC(0-inf)” value ([1]; po, 60 mg) is reported as 5.63, the “MPR Cmax” value ([1]; po, 60 mg) is reported as 2.44 and the “MPR AUC(0-inf)” value ([1]; po, 90 mg) is reported as 6.16. For the same compound, the “MPR Cmax” value ([1]; po, 90 mg) was 1.93, the “MPR AUC(0-inf)” value ([1]; po, 270 mg) was 5.92 and the “MPR Cmax” value ([1]; po, 270 mg) was 2.62. For the same compound, the “MPR AUC(0-inf)” value ([1]; po, 540 mg) was 7.91, the “MPR Cmax” value ([1]; po, 540 mg) was 3.43 and the “Frel AUC(0-inf)” value ([1]; male, 180 mg) was 63.6%. The “Frel AUC(0-last)” value ([1]; male, 180 mg) was 63.5%, the “Frel Cmax” value ([1]; male, 180 mg) was 64.9% and the “AUC(0-24)” value ([1]; male, po, 60 mg) was 383 ng·h/mL. The “AUC(0-inf)” value ([1]; male, po, 60 mg) was 410 ng·h/mL, the Cmax ([1]; male, po, 60 mg) was 65.3 ng/mL and the T1/2 ([1]; male, po, 60 mg) was 4.89 h. For the same compound, the Tmax ([1]; male, po, 60 mg) was 2.50 h, the “AUC(0-24)” value ([1]; male, po, 90 mg) was 1170 ng·h/mL and the “AUC(0-inf)” value ([1]; male, po, 90 mg) was 1200 ng·h/mL. The “AUC(0-last)” value ([1]; male, po, 90 mg) was 1190 ng·h/mL, the Cmax ([1]; male, po, 90 mg) was 214 ng/mL and the T1/2 ([1]; male, po, 90 mg) was 4.79 h. The Tmax ([1]; male, po, 90 mg) was 1.25 h, the “AUC(0-24)” value ([1]; male, po, 270 mg) was 4250 ng·h/mL and the “AUC(0-inf)” value ([1]; male, po, 270 mg) was 4950 ng·h/mL. The Cmax ([1]; male, po, 270 mg) was 621 ng/mL, the T1/2 ([1]; male, po, 270 mg) was 10.4 h and the Tmax ([1]; male, po, 270 mg) was 2.00 h. The “AUC(0-24)” value ([1]; male, po, 540 mg) was 10800 ng·h/mL, the “AUC(0-inf)” value ([1]; male, po, 540 mg) was 12700 ng·h/mL and the Cmax ([1]; male, po, 540 mg) was 1110 ng/mL. For the same compound, the T1/2 ([1]; male, po, 540 mg) was 11.3 h, the Tmax ([1]; male, po, 540 mg) was 4.00 h and the “AUClast Ratio (Metabolites/Parent)” value ([2]; mice brain, solution) was 0.172. The “Cmax Ratio (Metabolite/Parent)” value ([2]; mice brain, solution) was 0.159, the AUCInf ([2]; mice brain, solution PEG 400/Kleptose/water) was 4282 ng·h/g and the AUClast ([2]; mice brain, solution PEG 400/Kleptose/water, last time point 24 hr) was 4234 ng·h/g. For the same compound, the Cmax [2, 4] was 678 ng/g, the Tmax [2, 4] was 4 h and the half-life [2, 4] was 4.85 h. The AUC(0-inf) [2, 5] was 4310 ng·h/mL, the Cmax [2, 5] was 692 ng/mL and the Tmax [2, 5] was 4 h. It also gave an AUC(0-t) ([2]; mouse, po, mice plasma, solution PEG 400/Kleptose/water, last time point 24 hr) of 4280 ng·h/mL, a Cmax ([3]; male, C57BL/6, mouse, plasma, po, 50 mg/kg, Group 1 (suspension, 0.5% methylcellulose in PBS), individual mouse, read-out: Cmax) of 239 ng/mL and a Tmax ([3]; male, C57BL/6, mouse, plasma, po, 50 mg/kg, Group 1 (suspension, 0.5% methylcellulose in PBS), individual mouse, read-out: tmax) of 1 h. For the same compound, the AUC(0-inf) [3, 6] was 8200 ng·h/mL, the AUC(0-t) [3, 6] was 1590 ng·h/mL and the half-life [3, 6] was 28.3 h. It also gave a Cmax ([3]; male, C57BL/6, mouse, plasma, po, 50 mg/kg, Group 1 (suspension, 0.5% methylcellulose in PBS), mean, read-out: Cmax) of 235 ng/mL, a Tmax ([3]; male, C57BL/6, mouse, plasma, po, 50 mg/kg, Group 1 (suspension, 0.5% methylcellulose in PBS), mean, read-out: tmax) of 1.33 h and an AUC(0-inf) [3, 7] of 3110 ng·h/mL. It also gave an AUC(0-t) [3, 7] of 2880 ng·h/mL, a half-life [3, 7] of 2.92 h and a Cmax ([3]; male, C57BL/6, mouse, plasma, po, 50 mg/kg, Group 2 (solution, PEG400/Kleptose/water), individual mouse, read-out: Cmax) of 487 ng/mL. For the same compound, the Tmax ([3]; male, C57BL/6, mouse, plasma, po, 50 mg/kg, Group 2 (solution, PEG400/Kleptose/water), individual mouse, read-out: tmax) was 2 h, the AUC(0-inf) [3, 8] was 2960 ng·h/mL and the AUC(0-t) [3, 8] was 2750 ng·h/mL. For the same compound, the half-life [3, 8] was 2.9 h, the Cmax ([3]; male, C57BL/6, mouse, plasma, po, 50 mg/kg, Group 2 (solution, PEG400/Kleptose/water), mean, read-out: Cmax) was 449 ng/mL and the Tmax ([3]; male, C57BL/6, mouse, plasma, po, 50 mg/kg, Group 2 (solution, PEG400/Kleptose/water), mean, read-out: tmax) was 1.67 h. The AUC(0-inf) [3, 9] was 612 ng·h/mL, the AUC(0-t) [3, 9] was 564 ng·h/mL and the Cmax ([3]; male, C57BL/6, mouse, plasma, po, 50 mg/kg, Group 3 (suspension, Labrafil/Masine/Miglyol/water), individual mouse, read-out: Cmax) was 98.9 ng/mL. It also gave an AUC(0-inf) [3, 10] of 584 ng·h/mL, an AUC(0-t) [3, 10] of 533 ng·h/mL and a half-life [3, 10] of 2.58 h. The Cmax ([3]; male, C57BL/6, mouse, plasma, po, 50 mg/kg, Group 3 (suspension, Labrafil/Masine/Miglyol/water), mean, read-out: Cmax) was 92 ng/mL, the Tmax ([3]; male, C57BL/6, mouse, plasma, po, 50 mg/kg, Group 3 (suspension, Labrafil/Masine/Miglyol/water), mean, read-out: tmax) was 3.33 h and the AUCInf [3, 11] was 1163 ng·h/mL and 22064 ng·h/mL and 1379 ng·h/mL. For the same compound, the AUClast [3, 11] was 1148 ng·h/mL and 2355 ng·h/mL and 1267 ng·h/mL, the Cmax [3, 11] was 309 ng/mL and 156 ng/mL and the t1/2 [3, 11] was 1.88 h and 80.8 h and 2.08 h. The AUCInf [3, 12] was 2962 ng·h/mL and 2817 ng·h/mL, the AUClast [3, 12] was 2862 ng·h/mL and 2513 ng·h/mL and the Cmax [3, 12] was 483 ng/mL and 378 ng/mL. For the same compound, the t1/2 [3, 12] was 2.17 h and 3.61 h, the “AUClast Ratio (Metabolite/Parent)” value [3, 13] was 0.256 and the “Cmax Ratio (Metabolite/Parent)” value [3, 13] was 0.211. For the same compound, the AUCInf [3, 14] was 621 ng·h/mL and 519 ng·h/mL, the AUClast [3, 14] was 532 ng·h/mL and 504 ng·h/mL and the Cmax [3, 14] was 117 ng/mL and 58.7 ng/mL. The Tmax [3, 14] was 8 h and the t1/2 [3, 14] was 3.43 h and 2.93 h and 1.38 h.
